Among the data in article PMC4744544 (Analytical biochemistry, 2015) are Km values, retold here.

In general, Km refers to the concentration of substrate that gives half-maximal velocity.

One test has as its target T1, Dgt (Escherichia coli, UniProt P15723).
T1 sequence (P15723 2-505): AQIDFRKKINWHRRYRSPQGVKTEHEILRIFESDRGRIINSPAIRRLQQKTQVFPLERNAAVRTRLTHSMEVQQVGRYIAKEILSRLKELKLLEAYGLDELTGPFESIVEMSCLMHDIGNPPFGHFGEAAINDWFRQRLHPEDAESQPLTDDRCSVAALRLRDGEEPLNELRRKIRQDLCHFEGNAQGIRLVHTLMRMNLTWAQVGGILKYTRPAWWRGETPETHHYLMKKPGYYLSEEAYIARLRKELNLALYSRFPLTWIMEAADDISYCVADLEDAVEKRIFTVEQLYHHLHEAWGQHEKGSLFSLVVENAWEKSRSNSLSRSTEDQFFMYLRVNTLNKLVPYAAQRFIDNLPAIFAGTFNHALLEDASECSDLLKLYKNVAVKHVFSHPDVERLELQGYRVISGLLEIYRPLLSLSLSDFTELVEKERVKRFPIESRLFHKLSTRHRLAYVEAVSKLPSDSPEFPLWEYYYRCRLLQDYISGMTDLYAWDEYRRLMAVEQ
The test can be described thus: discontinuous HPLC of deoxyguanosine, Michaelis-Menten fit. The test is classed as biochemical. To be noted: 20 mM Tris-HCl pH 8.0; 5 mM MgCl2; 30 °C; Dgt 0.2 nM hexamer.

The test system of test [1] is Purine Nucleoside Phosphorylase (PNPase; EC 2.4.2.1). Nature of the test: XOD-coupled absorbance at […] nm, initial velocities, Michaelis-Menten fit. To be noted: 100 mM Tris-HCl pH 8; 5 mM KH2PO4; PNPase 50 mU/mL; XOD 500 mU/mL as coupling enzyme. The test is classed as biochemical.

On to `Nc1nc2c(ncn2[C@H]2C[C@H](O)[C@@H](COP(=O)(O)OP(=O)(O)OP(=O)(O)O)O2)c(=O)[nH]1` [dGTP], for which the Km entry at Dgt was “the best fit to the data is a simple Michaelis-Menten curve”.
With `Nc1nc2c(ncn2[C@H]2C[C@H](O)[C@@H](CO)O2)c(=O)[nH]1` [deoxyguanosine], in test [1], the Km is 110 ± 13 µM.
